Data as given in US7585859B2, “PDE4B inhibitors and uses therefor” (Plexxikon, Inc., priority 2004, dated 2009).

Tests used:
[1] = biological target: T1, PDE4B: The catalytic domain of human PDE4B from S152-S528 (Homo sapiens, UniProt Q07343); assay: PDE4 IC50 determination by Scintillation Proximity Assay, PDE4B; format: biochemical; conditions: Table 1B, Formula I compounds; read-out: IC50 PDE4B
T1 construct: His6 (N); thrombin cleavage site (N); made in house; host or cells: E. coli
How it was run: (§1)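 Scintillation counts reflected [^3H]AMP captured on yttrium silicate SPA beads after enzyme hydrolysed [^3H]cAMP for 30 min at 30°. PDE4B was used at 80 ng/ml and PDE4D at 4 ng/ml. IC50 values came from non-linear regression.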

[2] = biological target: T2, PDE4D (Homo sapiens, UniProt Q08499); assay: PDE4 IC50 determination by Scintillation Proximity Assay, PDE4D; format: biochemical; conditions: Table 1B, Formula I compounds; read-out: IC50 PDE4D
T2 construct: PDE4D: The catalytic domain of human PDE4B from S3 16-V692; His6 (N); thrombin cleavage site (N); made in house; host or cells: E. coli
How it was run: as §1

T2 sequence (Q08499 380-756): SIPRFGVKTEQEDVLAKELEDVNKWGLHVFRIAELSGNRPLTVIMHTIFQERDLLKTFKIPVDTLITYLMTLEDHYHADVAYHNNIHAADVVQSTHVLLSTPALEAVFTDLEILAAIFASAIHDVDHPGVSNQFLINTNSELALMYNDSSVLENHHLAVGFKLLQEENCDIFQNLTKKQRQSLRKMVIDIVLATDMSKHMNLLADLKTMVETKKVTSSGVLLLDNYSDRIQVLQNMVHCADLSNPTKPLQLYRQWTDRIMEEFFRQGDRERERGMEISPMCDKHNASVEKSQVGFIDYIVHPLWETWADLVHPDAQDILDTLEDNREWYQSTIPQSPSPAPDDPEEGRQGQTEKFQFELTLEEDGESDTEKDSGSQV
T1 sequence (Q07343 with tags, fused parts or gaps): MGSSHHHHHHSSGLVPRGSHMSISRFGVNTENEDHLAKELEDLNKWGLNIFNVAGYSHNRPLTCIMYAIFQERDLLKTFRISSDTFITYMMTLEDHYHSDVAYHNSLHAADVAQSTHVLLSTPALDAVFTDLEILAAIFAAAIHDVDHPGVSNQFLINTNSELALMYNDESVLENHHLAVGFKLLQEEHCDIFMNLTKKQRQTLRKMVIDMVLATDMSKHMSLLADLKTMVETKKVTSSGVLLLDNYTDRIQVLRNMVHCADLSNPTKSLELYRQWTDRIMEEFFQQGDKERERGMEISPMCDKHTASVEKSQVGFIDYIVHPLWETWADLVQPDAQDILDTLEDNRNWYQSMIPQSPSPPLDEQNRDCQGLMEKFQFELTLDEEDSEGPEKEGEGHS

Row | Compound | IC50 [1] [µM] | IC50 [2] [µM]
1 | N#Cc1c(NC2CCOC2=O)sc(C(=O)c2ccccn2)c1N (centres unmarked) [Compound 1-152, 4-Amino-2-(2-oxo-tetrahydro-furan-3-ylamino)-5-(pyridine-2-carbonyl)-thiophene-3-carbonitrile] | > 10 | > 10
2 | N#Cc1c(NC2CCCC2)sc(C(=O)c2ccc(Cl)cc2)c1N [Compound 1-182, 4-Amino-5-(4-chloro-benzoyl)-2-cyclopentylamino-thiophene-3-carbonitrile] | < 10 | > 10
3 | COc1ccc(C(=O)c2sc(NC3CCCC3)c(C#N)c2N)cc1 [Compound 1-183, 4-Amino-2-cyclopentylamino-5-(4-methoxy-benzoyl)-thiophene-3-carbonitrile] | < 10 | < 10
4 | N#Cc1c(Nc2ccc(Oc3ccccc3)cc2)sc(C(=O)C2CC2)c1N [Compound 1-184, 4-Amino-5-cyclopropanecarbonyl-2-(4-phenoxy-phenylamino)-thiophene-3-carbonitrile] | < 10 | < 10
5 | N#Cc1c(Nc2ccc(Oc3ccccc3)cc2)sc(C(=O)c2ccccc2)c1N [Compound 1-185, 4-Amino-5-benzoyl-2-(4-phenoxy-phenylamino)-thiophene-3-carbonitrile] | < 10 | < 10
6 | N#Cc1c(NC2CCCC2)sc(C(N)=O)c1N [Compound 1-196, 3-Amino-4-cyano-5-cyclopentylamino-thiophene-2-carboxylic acid amide] | > 10 | > 10
7 | N#Cc1c(Nc2ccc(Oc3ccccc3)cc2)sc(C(N)=O)c1N [Compound 1-197, 3-Amino-4-cyano-5-(4-phenoxy-phenylamino)-thiophene-2-carboxylic acid amide] | > 10 | > 10
8 | CCOC(=O)c1sc(NC2CCCC2)c(C#N)c1N [Compound 1-199, 3-Amino-4-cyano-5-cyclopentylamino-thiophene-2-carboxylic acid ethyl ester] | < 10 | < 10
9 | CCOC(=O)C(=O)c1sc(NC2CCCC2)c(C#N)c1N [Compound 1-201, (3-Amino-4-cyano-5-cyclopentylamino-thiophen-2-yl)-oxo-acetic acid ethyl ester] | < 10 | < 10
10 | N#Cc1c(NC2CCCC2)sc(C(=O)c2ccsc2)c1N [Compound 1-202, 4-Amino-2-cyclopentylamino-5-(thiophene-3-carbonyl)-thiophene-3-carbonitrile] | < 10 | < 10
11 | N#Cc1c(NC2CCCC2)sc(C(=O)c2ccc(-c3ccccc3)s2)c1N [Compound 1-203, 4-Amino-2-cyclopentylamino-5-(5-phenyl-thiophene-2-carbonyl)-thiophene-3-carbonitrile] | < 10 | < 10
12 | N#Cc1c(NC2CCCC2)sc(C(=O)c2cc(Br)no2)c1N [Compound 1-207, 4-Amino-5-(3-bromo-isoxazole-5-carbonyl)-2-cyclopentylamino-thiophene-3-carbonitrile] | < 10 | < 10
13 | CC(C)Nc1sc(C(=O)c2ccc(Cl)c(Cl)c2)c(N)c1C#N [Compound 1-217, 4-Amino-5-(3,4-dichloro-benzoyl)-2-isopropylamino-thiophene-3-carbonitrile] | < 10 | < 10
14 | CN1CCN(C(=O)C(=O)c2sc(NC3CCCC3)c(C#N)c2N)CC1 [Compound 1-218, 4-Amino-2-cyclopentylamino-5-[2-(4-methyl-piperazin-1-yl)-2-oxo-acetyl]-carbonitrile] | > 10 | > 10
15 | CCC(CC)Nc1sc(C(=O)c2ccc(Oc3ccccc3)cc2)c(N)c1C#N [Compound 1-229, 4-Amino-2-(1-ethyl-propylamino)-5-(4-phenoxy-benzoyl)-thiophene-3-carbonitrile] | < 10 | < 10
16 | CC(C)Nc1sc(C(=O)c2ccc(Oc3ccccc3)cc2)c(N)c1C#N [Compound 1-230, 4-Amino-2-isopropylamino-5-(4-phenoxy-benzoyl)-thiophene-3-carbonitrile] | < 10 | < 10
17 | N#Cc1c(NC2CCCC2)sc(C(=O)c2ccc(Oc3ccccc3)cc2)c1N [Compound 1-231, 4-Amino-2-cyclopentylamino-5-(4-phenoxy-benzoyl)-thiophene-3-carbonitrile] | < 10 | < 10
18 | CCC(C)Nc1sc(C(=O)c2ccc(Oc3ccccc3)cc2)c(N)c1C#N (centres unmarked) [Compound 1-232, 4-Amino-2-sec-butylamino-5-(4-phenoxy-benzoyl)-thiophene-3-carbonitrile] | < 10 | < 10
19 | Cc1sc(-c2ccccc2)cc1C(=O)c1sc(NC2CCCC2)c(C#N)c1N [Compound 1-234, 4-Amino-2-cyclopentylamino-5-(2-methyl-5-phenyl-thiophene-3-carbonyl)-thiophene-3-carbonitrile] | < 10 | < 10

Second part, the molecule after the results:

Row | IC50 [1] [µM] | IC50 [2] [µM] | Compound
20 | < 10 | < 10 | COc1ccc(CNc2sc(C(=O)c3ccccn3)c(N)c2C#N)cc1OC [Compound 1-149, 4-Amino-2-(3,4-dimethoxy-benzylamino)-5-(pyridine-2-carbonyl)-thiophene-3-carbonitrile]
21 | < 10 | > 10 | N#Cc1c(Nc2ccc(Oc3ccccc3)cc2)sc(C(=O)c2ccccn2)c1N [Compound 1-150, 4-Amino-2-(4-phenoxy-phenylamino)-5-(pyridine-2-carbonyl)-thiophene-3-carbonitrile]
22 | < 10 | > 10 | N#Cc1c(Nc2ccc(C(=O)NC3CCOC3=O)cc2)sc(C(=O)c2ccccn2)c1N (centres unmarked) [Compound 1-151, 4-[4-Amino-3-cyano-5-(pyridine-2-carbonyl)-thiophen-2-ylamino]-N-(2-oxo-tetrahydro-furan-3-yl)-benzamide]
23 | < 10 | > 10 | CCc1ccccc1Nc1sc(C(=O)c2ccccn2)c(N)c1C#N [Compound 1-153, 4-Amino-2-(2-ethyl-phenylamino)-5-(pyridine-2-carbonyl)-thiophene-3-carbonitrile]
24 | < 10 | > 10 | COC(=O)C(CC(C)C)Nc1sc(C(=O)c2cc(OC)ccc2OC)c(N)c1C#N (centres unmarked) [Compound 1-154, 2-[4-Amino-3-cyano-5-(2,5-dimethoxy-benzoyl)-thiophen-2-ylamino]-4-methyl-pentanoic acid methyl ester]
25 | < 10 | < 10 | COC(=O)C(CCSC)Nc1sc(C(=O)c2cccc(Cl)c2)c(N)c1C#N (centres unmarked) [Compound 1-156]
26 | < 10 | < 10 | Cc1ccc(C(=O)c2sc(Nc3ccc4c(c3)CCC4)c(C#N)c2N)c(C)c1 [Compound 1-157, 4-Amino-5-(2,4-dimethyl-benzoyl)-2-(indan-5-ylamino)-thiophene-3-carbonitrile]
27 | < 10 | > 10 | Cc1ccc(C(=O)c2sc(Nc3ccc(Oc4ccccc4)cc3)c(C#N)c2N)c(C)c1 [Compound 1-158, 4-Amino-5-(2,4-dimethyl-benzoyl)-2-(4-phenoxy-phenylamino)-thiophene-3-carbonitrile]
28 | < 10 | < 10 | N#Cc1c(NC2CCOC2=O)sc(C(=O)c2csc3ccccc23)c1N (centres unmarked) [Compound 1-159, 4-Amino-5-(benzo[b]thiophene-3-carbonyl)-2-(2-oxo-tetrahydro-furan-3-ylamino)-thiophene-3-carbonitrile]
29 | < 10 | > 10 | Cc1ccccc1C(=O)Nc1sc(C(=O)c2ccccn2)c(N)c1C#N [Compound 1-160, N-[4-Amino-3-cyano-5-(pyridine-2-carbonyl)-thiophen-2-yl]-2-methyl-benzamide]
30 | < 10 | < 10 | COc1ccc(CNc2sc(C(=O)c3ccc(C)cc3C)c(N)c2C#N)cc1OC [Compound 1-162, 4-Amino-2-(3,4-dimethoxy-benzylamino)-5-(2,4-dimethyl-benzoyl)-thiophene-3-carbonitrile]
31 | < 10 | > 10 | N#Cc1c(Nc2ccc(Oc3ccccc3)cc2)sc(C(=O)c2cccc(Cl)c2)c1N [Compound 1-163, 4-Amino-5-(3-chloro-benzoyl)-2-(4-phenoxy-phenylamino)-thiophene-3-carbonitrile]
32 | < 10 | < 10 | N#Cc1c(Nc2ccc(OC(F)F)cc2)sc(C(=O)c2ccc(OC(F)F)cc2)c1N [Compound 1-165, 4-Amino-5-(4-difluoro-methoxy-benzoyl)-2-(4-difluoromethoxy-phenylamino)-thiophene-3-carbonitrile]
33 | < 10 | < 10 | N#Cc1c(Nc2ccc(Cl)c(C(F)(F)F)c2)sc(C(=O)c2ccccc2)c1N [Compound 1-168, 4-Amino-5-benzoyl-2-(4-chloro-3-trifluoromethyl-phenylamino)-thiophene-3-carbonitrile]
34 | < 10 | < 10 | N#Cc1c(Nc2cccc([N+](=O)[O-])c2)sc(C(=O)c2ccccc2)c1N [Compound 1-170, 4-Amino-5-benzoyl-2-(3-nitro-phenylamino)-thiophene-3-carbonitrile]
35 | < 10 | < 10 | CCOC(=O)c1cc(C(=O)c2sc(Nc3cccc(SC)c3)c(C#N)c2N)on1 [Compound 1-176, 5-[3-Amino-4-cyano-5-(3-methylsulfanyl-phenylamino)-thiophene-2-carbonyl]-isoxazole-3-carboxylic acid ethyl ester]
36 | < 10 | < 10 | COc1ccc(C(=O)c2sc(NC3CC3)c(C#N)c2N)cc1 [Compound 1-178, 4-Amino-2-cyclopropylamino-5-(4-methoxy-benzoyl)-thiophene-3-carbonitrile]
37 | < 10 | < 10 | N#Cc1c(NC2CCCC2)sc(C(=O)C2CC2)c1N [Compound 1-179, 4-Amino-2-cyclopentylamino-5-cyclopropanecarbonyl-thiophene-3-carbonitrile]
